Reference: ChEMBL document CHEMBL4715760, “Balancing potency, metabolic stability and permeability in pyrrolopyrimidine-based EGFR inhibitors” (Eur J Med Chem, 2016)

Legend:
[1] = biological target: Angiopoietin-1 receptor (Homo sapiens) (UniProt Q02763); test: Inhibition of recombinant human GST-tagged TEK (817 to 1101 residues) expressed in baculovirus expression system at 500 nM using Tyr 05 as substrate incubated for 1 hr in presence of ATP at its Km concentration by Z'-LYTE assay relative to control
[2] = biological target: Tyrosine-protein kinase CSK (Homo sapiens) (UniProt P41240); test: Inhibition of recombinant full length human His-tagged CSK expressed in Escherichia coli expression system at 500 nM using Tyr 02 peptide as substrate incubated for 1 hr in presence of ATP at its Km concentration by Z'-LYTE assay relative to control
[3] = biological target: Aurora kinase B (Homo sapiens) (UniProt Q96GD4); test: Inhibition of recombinant full length His-tagged human AURKB expressed in baculovirus expression system at 500 nM using Ser/Thr 01 as substrate incubated for 1 hr in presence of ATP at its Km concentration by Z'-LYTE assay relative to control
[4] = biological target: Epidermal growth factor receptor (Homo sapiens, UniProt P00533); conditions: dose 500.0 nM, time 1.0 hrs
[5] = biological target: Receptor tyrosine-protein kinase erbB-2 (Homo sapiens) (UniProt P04626); test: Inhibition of recombinant human His-tagged ERBB2 (676 to 1255 residues) expressed in baculovirus expression system at 500 nM using Tyr 06 peptide as substrate incubated for 1 hr in presence of ATP at its Km concentration by Z'-LYTE assay relative to control
[6] = biological target: Tyrosine-protein kinase Fgr (Homo sapiens) (UniProt P09769); test: Inhibition of recombinant full length human C-terminal His-tagged FGR expressed in baculovirus expression system at 500 nM using Tyr 02 peptide as substrate incubated for 1 hr in presence of ATP at its Km concentration by Z'-LYTE assay relative to control
[7] = biological target: Macrophage colony-stimulating factor 1 receptor (Homo sapiens) (UniProt P07333); test: Inhibition of recombinant human His-tagged CSF1R (538 to 910 residues) expressed in baculovirus expression system at 500 nM using Tyr 01 peptide as substrate incubated for 1 hr in presence of ATP at its Km concentration by Z'-LYTE assay relative to control
[8] = biological target: Vascular endothelial growth factor receptor 1 (Homo sapiens) (UniProt P17948); test: Inhibition of recombinant human GST-tagged FLT1 catalytic domain (781 to 1338 residues) expressed in baculovirus expression system at 500 nM using Tyr 04 peptide as substrate incubated for 1 hr in presence of ATP at its Km concentration by Z'-LYTE assay relative to control
[9] = biological target: Protein kinase C alpha type (Homo sapiens) (UniProt P17252); test: Inhibition of human full length GST-tagged PRKCA expressed in insect cells at 500 nM using Ser/Thr 07 as substrate incubated for 1 hr in presence of ATP at its Km concentration by Z'-LYTE assay relative to control
[10] = biological target: Tyrosine-protein kinase Lck (Homo sapiens) (UniProt P06239); conditions: dose 500.0 nM, time 1.0 hrs
[11] = biological target: T1, Serine/threonine-protein kinase Nek1 (Homo sapiens) (UniProt Q96PY6); test: Inhibition of recombinant human GST-tagged NEK1 (1 to 505 residues) expressed in baculovirus expression system at 500 nM using Ser/Thr 07 as substrate incubated for 1 hr in presence of ATP at its Km concentration by Z'-LYTE assay relative to control
T1 sequence (whole entry): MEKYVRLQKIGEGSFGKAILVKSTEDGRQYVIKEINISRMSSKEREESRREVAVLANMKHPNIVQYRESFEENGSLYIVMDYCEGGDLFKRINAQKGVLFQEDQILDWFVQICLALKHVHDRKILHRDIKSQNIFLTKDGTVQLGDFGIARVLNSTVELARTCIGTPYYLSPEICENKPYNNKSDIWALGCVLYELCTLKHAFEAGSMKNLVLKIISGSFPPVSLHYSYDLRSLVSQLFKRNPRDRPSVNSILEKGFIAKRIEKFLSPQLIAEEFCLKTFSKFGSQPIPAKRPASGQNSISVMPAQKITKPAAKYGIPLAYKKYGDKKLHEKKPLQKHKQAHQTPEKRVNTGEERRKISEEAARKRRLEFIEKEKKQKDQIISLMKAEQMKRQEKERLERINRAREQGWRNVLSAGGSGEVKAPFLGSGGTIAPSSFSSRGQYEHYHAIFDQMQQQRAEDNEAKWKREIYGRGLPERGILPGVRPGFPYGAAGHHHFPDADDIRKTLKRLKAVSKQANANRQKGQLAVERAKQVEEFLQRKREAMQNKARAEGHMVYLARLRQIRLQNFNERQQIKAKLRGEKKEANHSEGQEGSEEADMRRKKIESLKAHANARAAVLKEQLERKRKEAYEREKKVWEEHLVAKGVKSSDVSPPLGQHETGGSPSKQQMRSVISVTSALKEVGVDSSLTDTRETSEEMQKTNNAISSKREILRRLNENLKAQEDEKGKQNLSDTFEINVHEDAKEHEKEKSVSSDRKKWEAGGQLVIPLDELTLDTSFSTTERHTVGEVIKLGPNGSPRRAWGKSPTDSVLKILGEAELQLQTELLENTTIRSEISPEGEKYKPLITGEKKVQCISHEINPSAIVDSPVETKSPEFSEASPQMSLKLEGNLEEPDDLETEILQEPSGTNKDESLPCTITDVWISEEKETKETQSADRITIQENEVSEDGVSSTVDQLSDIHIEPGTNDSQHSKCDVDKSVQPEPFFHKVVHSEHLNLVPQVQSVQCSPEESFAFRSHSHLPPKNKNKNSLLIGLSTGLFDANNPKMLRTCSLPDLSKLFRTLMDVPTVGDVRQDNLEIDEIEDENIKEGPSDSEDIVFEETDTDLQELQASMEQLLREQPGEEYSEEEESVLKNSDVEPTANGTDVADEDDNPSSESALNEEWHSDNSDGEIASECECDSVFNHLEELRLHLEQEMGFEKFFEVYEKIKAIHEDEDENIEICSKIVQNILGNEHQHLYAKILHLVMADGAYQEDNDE

[12] = biological target: Tyrosine-protein kinase Fyn (Homo sapiens) (UniProt P06241); test: Inhibition of recombinant human C-terminal His-tagged full length FYN expressed in baculovirus expression system at 500 nM using Tyr 02 peptide as substrate incubated for 1 hr in presence of ATP at its Km concentration by Z'-LYTE assay relative to control
[13] = biological target: Focal adhesion kinase 1 (Homo sapiens) (UniProt Q05397); test: Inhibition of recombinant full length human GST-tagged PTK2 expressed in baculovirus expression system at 500 nM using Tyr 07 as substrate incubated for 1 hr in presence of ATP at its Km concentration by Z'-LYTE assay relative to control

Chain of Tyrosine-protein kinase Fyn (Homo sapiens) (P06241 2-537 limits assumed): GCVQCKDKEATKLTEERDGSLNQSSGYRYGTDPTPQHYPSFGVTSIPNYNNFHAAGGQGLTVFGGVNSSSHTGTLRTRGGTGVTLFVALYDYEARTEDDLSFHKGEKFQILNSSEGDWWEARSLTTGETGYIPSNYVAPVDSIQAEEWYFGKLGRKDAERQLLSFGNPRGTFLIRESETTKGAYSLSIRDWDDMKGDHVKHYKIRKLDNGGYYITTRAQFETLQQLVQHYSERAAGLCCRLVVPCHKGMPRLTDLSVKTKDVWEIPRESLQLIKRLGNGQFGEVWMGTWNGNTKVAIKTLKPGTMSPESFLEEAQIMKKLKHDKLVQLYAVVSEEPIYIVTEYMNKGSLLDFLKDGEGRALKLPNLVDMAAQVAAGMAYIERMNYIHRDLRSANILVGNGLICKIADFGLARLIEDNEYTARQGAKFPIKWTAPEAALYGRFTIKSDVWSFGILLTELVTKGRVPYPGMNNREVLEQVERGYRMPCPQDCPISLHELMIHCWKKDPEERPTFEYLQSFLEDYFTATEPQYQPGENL
Chain of Aurora kinase B (Homo sapiens) (Q96GD4 whole entry): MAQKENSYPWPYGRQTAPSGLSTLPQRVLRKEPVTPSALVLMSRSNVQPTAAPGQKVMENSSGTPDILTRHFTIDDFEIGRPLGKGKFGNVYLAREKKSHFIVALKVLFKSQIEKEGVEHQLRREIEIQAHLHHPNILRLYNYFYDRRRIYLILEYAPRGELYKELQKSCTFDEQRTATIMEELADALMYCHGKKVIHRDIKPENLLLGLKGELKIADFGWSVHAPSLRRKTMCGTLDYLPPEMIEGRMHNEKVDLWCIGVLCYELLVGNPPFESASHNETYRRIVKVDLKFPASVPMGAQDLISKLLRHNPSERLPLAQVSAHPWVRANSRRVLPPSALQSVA
Chain of Tyrosine-protein kinase Fgr (Homo sapiens) (P09769 2-529 limits assumed): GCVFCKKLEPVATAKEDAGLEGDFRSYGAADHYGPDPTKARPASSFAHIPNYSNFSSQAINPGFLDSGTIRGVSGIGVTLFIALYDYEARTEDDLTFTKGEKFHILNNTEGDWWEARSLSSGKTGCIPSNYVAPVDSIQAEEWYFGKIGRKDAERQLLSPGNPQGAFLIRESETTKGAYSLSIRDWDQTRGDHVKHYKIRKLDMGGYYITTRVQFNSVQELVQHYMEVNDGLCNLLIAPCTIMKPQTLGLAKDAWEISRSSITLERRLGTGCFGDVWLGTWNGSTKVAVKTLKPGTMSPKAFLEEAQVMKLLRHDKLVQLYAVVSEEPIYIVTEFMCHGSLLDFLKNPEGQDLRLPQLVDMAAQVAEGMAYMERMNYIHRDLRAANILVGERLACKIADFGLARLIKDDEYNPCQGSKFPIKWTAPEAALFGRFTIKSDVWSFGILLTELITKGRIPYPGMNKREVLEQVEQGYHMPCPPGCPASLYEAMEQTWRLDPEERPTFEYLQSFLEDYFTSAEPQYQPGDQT
Chain of Receptor tyrosine-protein kinase erbB-2 (Homo sapiens) (P04626 whole entry, the tested form may be a part): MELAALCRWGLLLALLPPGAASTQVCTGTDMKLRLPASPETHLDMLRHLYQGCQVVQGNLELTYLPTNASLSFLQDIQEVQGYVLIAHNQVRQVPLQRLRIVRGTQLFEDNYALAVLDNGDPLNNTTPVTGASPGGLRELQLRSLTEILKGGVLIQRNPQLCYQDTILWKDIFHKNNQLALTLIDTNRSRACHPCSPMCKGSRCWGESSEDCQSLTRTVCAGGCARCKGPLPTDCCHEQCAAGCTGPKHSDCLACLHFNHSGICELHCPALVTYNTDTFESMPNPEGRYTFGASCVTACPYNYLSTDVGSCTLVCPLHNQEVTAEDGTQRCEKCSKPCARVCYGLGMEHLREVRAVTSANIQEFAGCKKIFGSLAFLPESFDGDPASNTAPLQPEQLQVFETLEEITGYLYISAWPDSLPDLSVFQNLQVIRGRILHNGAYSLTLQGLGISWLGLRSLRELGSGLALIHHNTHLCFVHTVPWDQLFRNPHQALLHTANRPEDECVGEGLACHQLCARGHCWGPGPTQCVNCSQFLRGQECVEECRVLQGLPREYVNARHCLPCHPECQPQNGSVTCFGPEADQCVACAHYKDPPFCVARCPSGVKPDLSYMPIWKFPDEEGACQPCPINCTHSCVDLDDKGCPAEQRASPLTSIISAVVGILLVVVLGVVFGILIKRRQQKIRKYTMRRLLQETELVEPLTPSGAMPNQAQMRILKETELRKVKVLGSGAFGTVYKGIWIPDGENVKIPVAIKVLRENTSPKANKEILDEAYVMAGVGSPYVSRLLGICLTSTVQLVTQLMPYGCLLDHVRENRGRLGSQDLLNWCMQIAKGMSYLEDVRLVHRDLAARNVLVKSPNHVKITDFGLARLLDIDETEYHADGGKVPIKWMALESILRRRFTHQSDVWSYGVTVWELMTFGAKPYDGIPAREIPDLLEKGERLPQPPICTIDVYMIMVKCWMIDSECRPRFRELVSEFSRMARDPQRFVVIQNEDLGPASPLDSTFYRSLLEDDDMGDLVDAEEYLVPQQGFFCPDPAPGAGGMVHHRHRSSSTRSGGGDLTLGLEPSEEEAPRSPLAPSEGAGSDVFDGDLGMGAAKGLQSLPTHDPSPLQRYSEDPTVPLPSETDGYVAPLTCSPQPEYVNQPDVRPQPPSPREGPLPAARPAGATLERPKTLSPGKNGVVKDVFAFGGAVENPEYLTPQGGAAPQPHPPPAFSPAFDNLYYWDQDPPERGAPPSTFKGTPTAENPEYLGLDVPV
Chain of Tyrosine-protein kinase Lck (Homo sapiens) (P06239 2-509 limits assumed): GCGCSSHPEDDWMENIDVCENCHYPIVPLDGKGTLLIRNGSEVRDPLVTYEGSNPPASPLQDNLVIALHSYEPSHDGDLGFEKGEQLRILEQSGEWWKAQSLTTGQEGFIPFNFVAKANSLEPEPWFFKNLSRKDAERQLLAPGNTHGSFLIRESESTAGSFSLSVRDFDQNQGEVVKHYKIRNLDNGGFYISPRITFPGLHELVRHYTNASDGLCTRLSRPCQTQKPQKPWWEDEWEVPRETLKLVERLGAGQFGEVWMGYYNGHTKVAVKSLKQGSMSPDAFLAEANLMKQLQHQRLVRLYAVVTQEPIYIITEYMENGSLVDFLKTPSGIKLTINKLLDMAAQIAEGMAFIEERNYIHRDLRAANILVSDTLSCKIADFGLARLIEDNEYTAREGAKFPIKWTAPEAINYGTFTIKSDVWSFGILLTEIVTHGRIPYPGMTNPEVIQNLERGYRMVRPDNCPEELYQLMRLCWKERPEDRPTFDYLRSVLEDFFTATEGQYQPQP
Chain of Epidermal growth factor receptor (P00533 whole entry, the tested form may be a part): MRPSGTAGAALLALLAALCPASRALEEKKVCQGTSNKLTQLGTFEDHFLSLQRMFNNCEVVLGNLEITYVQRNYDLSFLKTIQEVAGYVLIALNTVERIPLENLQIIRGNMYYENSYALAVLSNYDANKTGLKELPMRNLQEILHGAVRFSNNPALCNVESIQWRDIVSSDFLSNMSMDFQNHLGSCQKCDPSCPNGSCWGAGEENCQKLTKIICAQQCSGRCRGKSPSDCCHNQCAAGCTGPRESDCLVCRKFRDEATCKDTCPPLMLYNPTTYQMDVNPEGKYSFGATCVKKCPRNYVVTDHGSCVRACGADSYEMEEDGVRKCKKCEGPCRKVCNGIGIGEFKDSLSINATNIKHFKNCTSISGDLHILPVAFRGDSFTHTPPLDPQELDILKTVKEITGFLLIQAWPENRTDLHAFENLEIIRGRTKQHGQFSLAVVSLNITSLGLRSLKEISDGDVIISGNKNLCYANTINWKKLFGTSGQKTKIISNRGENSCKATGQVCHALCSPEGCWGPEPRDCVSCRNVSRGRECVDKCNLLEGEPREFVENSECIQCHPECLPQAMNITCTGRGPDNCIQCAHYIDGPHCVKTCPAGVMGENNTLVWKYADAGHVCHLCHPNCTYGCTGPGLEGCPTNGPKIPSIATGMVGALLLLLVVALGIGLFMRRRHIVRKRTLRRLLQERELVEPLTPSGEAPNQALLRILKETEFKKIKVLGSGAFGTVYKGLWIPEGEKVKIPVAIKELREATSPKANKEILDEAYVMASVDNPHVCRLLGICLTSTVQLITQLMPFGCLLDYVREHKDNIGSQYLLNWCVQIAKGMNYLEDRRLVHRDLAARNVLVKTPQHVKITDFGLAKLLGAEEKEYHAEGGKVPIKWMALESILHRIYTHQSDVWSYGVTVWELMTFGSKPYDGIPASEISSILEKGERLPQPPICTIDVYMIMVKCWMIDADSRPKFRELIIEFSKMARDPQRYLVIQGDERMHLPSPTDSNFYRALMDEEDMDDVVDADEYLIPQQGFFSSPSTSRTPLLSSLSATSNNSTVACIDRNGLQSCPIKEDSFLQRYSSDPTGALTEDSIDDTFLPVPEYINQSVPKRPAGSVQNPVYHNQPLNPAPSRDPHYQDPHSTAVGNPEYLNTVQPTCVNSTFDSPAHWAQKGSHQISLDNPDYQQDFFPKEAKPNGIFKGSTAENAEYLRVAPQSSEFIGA

SMILES	inhibition [1] [%]	inhibition [2] [%]	inhibition [3] [%]	inhibition [4] [%]	inhibition [5] [%]	inhibition [6] [%]	inhibition [7] [%]	inhibition [8] [%]	inhibition [9] [%]	inhibition [10] [%]	inhibition [11] [%]	inhibition [12] [%]	inhibition [13] [%]
COc1ccccc1-c1cc2c(N[C@H](CO)c3ccccc3)ncnc2[nH]1	0	6	5	100	53	74	79	5	15	17	1	27	-2
C#Cc1cccc(Nc2ncnc3cc(OCCOC)c(OCCOC)cc23)c1 [ERLOTINIB]	–	–	–	–	52	–	–	–	–	–	-8	–	-3
CN(C)CCNCc1ccc(-c2cc3c(N[C@H](CO)c4ccccc4)ncnc3[nH]2)cc1F	–	17	17	104	58	83	86	12	–	81	15	55	1

Further lines, results first:

inhibition [1] [%]	inhibition [2] [%]	inhibition [3] [%]	inhibition [4] [%]	inhibition [5] [%]	inhibition [6] [%]	inhibition [7] [%]	inhibition [8] [%]	inhibition [9] [%]	inhibition [10] [%]	inhibition [11] [%]	inhibition [12] [%]	inhibition [13] [%]	SMILES
1	9	13	96	53	73	88	8	17	13	0	27	–	OC[C@@H](Nc1ncnc2[nH]c(-c3ccccc3)cc12)c1ccccc1
-10	19	7	100	36	67	74	-4	-9	29	13	26	7	OCC[C@@H](Nc1ncnc2[nH]c(-c3ccccc3)cc12)c1ccccc1
–	17	1	102	35	73	82	3	1	26	8	34	9	CCOc1ccccc1-c1cc2c(N[C@H](CO)c3ccccc3)ncnc2[nH]1
